Test results as given in patent US8106052B2, “Luminescence-based methods and probes for measuring cytochrome P450 activity” (Promega Corporation, priority 2002, dated 2012).
Read-outs that look alike come from different tables or passages of the source.

Key:
[1] = tested on: pooled human liver microsomes; assay: Pooled human liver microsomes in two-step luminescent CYP450 reaction; conditions: for Effect on activity against Luc BE: substrate Luc BE, ketoconazole 100 micromolar; for CYP450 activity detected with the substrate compared to Sf9 cell membranes: pooled human liver microsomes, 60 minutes at 37° C.
Description: FIG. 8. Pooled human liver microsomes in two-step luminescent CYP450 reactions. D-luciferin derivatives were incubated in a CYP450 reaction mix with pooled human liver microsomes for 60 minutes at 37° C. before combining with a luciferase reaction mixture. For controls liver microsomes were replaced with control (no CYP450) Sf9 cell membranes. Luminescence was read within 12 minutes of combining the reactions on a Berthold Orion luminometer. […] Values labeled “nt” are vehicle controls.
(§1) In this Example, a procedure for a two-step CYP450/luciferase assay is provided. Luciferin derivatives were evaluated as P450 substrates and luciferase pro-substrates using this procedure. 20 microliter CYP450 reactions were prepared at pH 7.4 in an amount of KPO4 buffer that is optimal for a given CYP450 isoform (100 mM for CYP1A1, CYP1A2, CYP2B6, CYP2D6 and CYP2E1; 50 mM for CYP2C8 and CYP2C19; 25 mM for 2C9 and for pooled human liver microsomes; 200 mM for CYP3A4). For CYP2A6 100 mM Tris at pH 7.5 was substituted for KPO4. […] Reactions were initiated by addition of 0.4 pmoles recombinant human CYP450 co-expressed with CYP450 reductase in Sf9 cell microsomal membranes or 4 microgram pooled human liver microsomes and incubation at 37° C. After an initial incubation period at 37° C. 20 microliter CYP450 reactions were mixed with an 80 microliter luciferase reaction mix. […] Assays were also performed using 50 microliter CYP450 and luciferase reaction volumes (e.g., FIG. 3, panel B, table 3). Light output was measured immediately in a Turner Reporter, Turner 20/20 or Berthold Orion luminometer. Because the calibration of instruments from different manufacturers varies the quantitation of light output is instrument-specific and direct comparisons between instruments cannot be made.

CYP2C9 [2] = biological target: T1, CYP2C9 (Homo sapiens, UniProt P11712); assay: CYP450-catalyzed conversion of luciferin derivatives to luciferin (HPLC); format: biochemical; conditions: 100 micromolar, 37 C, HPLC with fluorescence detection
Target sequence in this assay (P11712 whole entry, species assumed): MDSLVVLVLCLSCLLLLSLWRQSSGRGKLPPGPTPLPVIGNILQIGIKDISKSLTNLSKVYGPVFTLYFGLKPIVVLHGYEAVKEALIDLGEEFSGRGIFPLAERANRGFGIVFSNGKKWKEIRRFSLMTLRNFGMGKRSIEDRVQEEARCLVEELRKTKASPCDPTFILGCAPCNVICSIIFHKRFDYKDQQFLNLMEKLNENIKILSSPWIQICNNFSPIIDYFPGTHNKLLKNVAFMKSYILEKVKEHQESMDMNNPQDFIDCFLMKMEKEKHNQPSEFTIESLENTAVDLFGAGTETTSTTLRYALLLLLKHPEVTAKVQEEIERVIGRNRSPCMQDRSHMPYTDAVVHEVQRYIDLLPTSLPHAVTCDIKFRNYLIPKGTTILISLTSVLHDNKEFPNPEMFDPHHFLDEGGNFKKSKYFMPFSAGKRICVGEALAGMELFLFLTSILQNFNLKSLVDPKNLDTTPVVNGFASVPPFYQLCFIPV

CYP2C9 [3] = biological target: T1, CYP2C9; assay: One-step CYP450/luciferase reaction; format: biochemical; design: purchased GenTest (Woburn, Mass.); host or cells: Sf9 insect cells; conditions: 37° C.
Description: (§2) Luciferin derivatives were evaluated as P450 substrates and luciferase pro-substrates using this procedure.
Target sequence in this assay (P11712 whole entry): as the sequence (P11712 whole entry, species assumed) above

CYP2C9 [4] = biological target: T1, CYP2C9; assay: Two-step CYP450/luciferase reaction, luciferin derivative evaluation as substrate; conditions: for Light output over controls with CYP2C9: CYP450 incubation 60 minutes at 37° C., then luciferase
Description: as §1
(§3) O-dealkylation and hydroxylation are common CYP450 catalyzed xenobiotic transformations (9). […] The CYP450 activities tested are contained in microsome fractions from insect cells that over-express a single recombinant human CYP450 isoform in combination with NADPH CYP450 reductase. It was reasoned that if CYP450s dealkylated or hydroxylated the luciferin derivatives at the 6′ position, authentic luciferin would be generated that could be detected enzymatically in a light generating firefly luciferase reaction as described by the equation in FIG. 1.
(§4) The panel included CYP1A1, CYP1A2, CYP2A6, CYP2B6, CYP2C8, CYP2C9, CYP2C19, CYP2D6, CYP2E1 and CYP3A4. After an initial incubation with CYP450, luciferase and its requisite cofactors were added and light output was monitored (FIGS. 3 and 9).
Target sequence in this assay (P11712 whole entry): as the sequence (P11712 whole entry, species assumed) above

CYP1A2 = biological target: T2, CYP1A2 (Homo sapiens, UniProt P05177); assay: as above; conditions: CYP450 incubation 60 minutes at 37° C., then luciferase
T2 sequence (P05177 1-516): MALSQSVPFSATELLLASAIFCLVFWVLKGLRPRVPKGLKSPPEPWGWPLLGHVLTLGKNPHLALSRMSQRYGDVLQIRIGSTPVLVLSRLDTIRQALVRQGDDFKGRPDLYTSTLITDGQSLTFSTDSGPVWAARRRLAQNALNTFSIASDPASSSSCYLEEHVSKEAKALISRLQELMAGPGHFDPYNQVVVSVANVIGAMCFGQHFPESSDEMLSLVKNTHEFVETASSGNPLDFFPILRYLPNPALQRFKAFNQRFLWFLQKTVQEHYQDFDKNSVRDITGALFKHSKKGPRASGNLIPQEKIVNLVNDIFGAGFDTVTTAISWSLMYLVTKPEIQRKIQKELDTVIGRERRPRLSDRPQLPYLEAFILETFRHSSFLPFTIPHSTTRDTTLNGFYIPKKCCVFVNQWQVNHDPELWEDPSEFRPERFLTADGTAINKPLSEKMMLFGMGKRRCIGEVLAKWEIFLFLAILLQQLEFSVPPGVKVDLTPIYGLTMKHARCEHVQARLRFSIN
Description: as §1, §3, §4

CYP3A4 [5] = biological target: T3, CYP3A4 (Homo sapiens, UniProt P08684)
T3 sequence (P08684 whole entry): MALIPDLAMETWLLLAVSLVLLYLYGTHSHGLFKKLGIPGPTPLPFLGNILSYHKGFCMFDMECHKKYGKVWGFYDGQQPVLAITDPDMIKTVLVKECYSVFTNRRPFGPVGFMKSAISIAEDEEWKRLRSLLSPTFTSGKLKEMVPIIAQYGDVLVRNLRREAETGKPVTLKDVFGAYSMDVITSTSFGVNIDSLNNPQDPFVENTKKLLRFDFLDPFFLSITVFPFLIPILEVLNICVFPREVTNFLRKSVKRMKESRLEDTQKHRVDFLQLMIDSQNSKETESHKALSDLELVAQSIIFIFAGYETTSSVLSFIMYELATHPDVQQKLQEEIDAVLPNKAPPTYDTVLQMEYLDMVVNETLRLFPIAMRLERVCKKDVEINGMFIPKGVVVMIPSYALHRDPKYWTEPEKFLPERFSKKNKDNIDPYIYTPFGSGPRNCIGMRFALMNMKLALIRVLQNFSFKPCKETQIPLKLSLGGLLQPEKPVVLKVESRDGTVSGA
Description: as §1, §3, §4

CYP2C8 = biological target: T4, CYP2C8 (Homo sapiens, UniProt P10632); conditions: CYP450 incubation 60 minutes at 37° C., then luciferase
T4 sequence (P10632 1-490): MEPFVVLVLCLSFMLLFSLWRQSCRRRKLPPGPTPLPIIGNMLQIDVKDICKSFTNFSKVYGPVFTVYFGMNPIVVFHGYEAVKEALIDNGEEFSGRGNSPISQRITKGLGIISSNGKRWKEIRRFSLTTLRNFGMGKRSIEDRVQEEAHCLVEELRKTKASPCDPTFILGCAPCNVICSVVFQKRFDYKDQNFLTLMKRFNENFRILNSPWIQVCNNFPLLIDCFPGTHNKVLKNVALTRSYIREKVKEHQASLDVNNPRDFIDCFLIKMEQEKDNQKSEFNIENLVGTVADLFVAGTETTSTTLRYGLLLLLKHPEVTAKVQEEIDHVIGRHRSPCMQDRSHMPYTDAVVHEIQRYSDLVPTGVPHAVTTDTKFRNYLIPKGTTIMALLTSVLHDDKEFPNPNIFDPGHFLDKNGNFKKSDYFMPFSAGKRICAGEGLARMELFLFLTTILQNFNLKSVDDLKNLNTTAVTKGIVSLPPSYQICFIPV
Description: as §1, §3, §4

CYP3A4 [6] = biological target: T3, CYP3A4; assay: One-step CYP450/luciferase reaction; conditions: 37° C.
Description: as §2

CYP1A1 [7] = biological target: T5, CYP1A1 (Homo sapiens, UniProt P04798); assay: CYP450-catalyzed conversion of luciferin derivatives to luciferin (HPLC); conditions: 100 micromolar, 37 C, HPLC with fluorescence detection
T5 sequence (P04798 1-512): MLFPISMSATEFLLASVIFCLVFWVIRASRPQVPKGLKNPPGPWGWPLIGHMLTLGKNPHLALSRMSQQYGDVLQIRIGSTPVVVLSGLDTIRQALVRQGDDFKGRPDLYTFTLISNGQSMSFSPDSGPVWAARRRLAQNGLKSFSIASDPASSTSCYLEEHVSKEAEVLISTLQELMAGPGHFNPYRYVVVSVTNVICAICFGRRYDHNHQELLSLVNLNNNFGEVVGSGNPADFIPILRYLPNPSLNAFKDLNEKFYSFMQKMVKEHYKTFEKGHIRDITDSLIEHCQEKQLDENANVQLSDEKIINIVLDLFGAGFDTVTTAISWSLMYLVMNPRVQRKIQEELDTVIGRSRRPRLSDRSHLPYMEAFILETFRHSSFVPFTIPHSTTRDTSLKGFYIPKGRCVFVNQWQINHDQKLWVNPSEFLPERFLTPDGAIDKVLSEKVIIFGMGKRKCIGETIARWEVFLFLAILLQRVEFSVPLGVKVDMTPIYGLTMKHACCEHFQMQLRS
Description: At various time intervals, the reactions were stopped by the addition of Tergitol to 0.1% (v/v) and flash freezing in liquid nitrogen. 95 microliter aliquots of each reaction mixture were subjected to fractionation by HPLC. […] Separation was achieved on a 5 micron Adsorbosphere HS C18 column (Alltech Associates) with a solvent gradient of 0.05M KH2PO4/pH 6 (solvent A) and 80:20 acetonitrile/water (solvent B). The gradient conditions used were 15% B to 95% B over 10 min.

CYP1A1 [8] = biological target: T5, CYP1A1; conditions: CYP450 incubation 60 minutes at 37° C., then luciferase
Description: as §1, §3, §4

[9] = alpha-naphthoflavone 10 micromolar
[10] = two-step, 37° C., up to 60 minutes

## O=c1cc(-c2ccccc2)oc2c1ccc1ccccc12 [Alpha-Naphpthoflavone, alpha-naphthoflavone]
[1]; [9]
  Effect on activity against Luc BE: slight stimulation
[1]; substrates H-Luc, Luc ME, Luc EE, Luc BE, alpha-naphthoflavone 10 micromolar
  Inhibition of microsomal light output: lack of inhibition

## O=C(O)C1CSC(c2nc3ccccc3s2)=N1 (stereo not drawn) [H-Luc, 6′-Deoxyluciferin]
CYP2C9 [2]
  Conversion to luciferin by CYP2C9: confirmed
CYP2C9 [3]
  Light output over time, one-step with CYP2C9: increasing to a maximum by about 30 minutes and declining thereafter
[1]
  CYP450 activity detected with the substrate compared to Sf9 cell membranes: significant amounts of CYP450 activity was detected
CYP2C9 [4]
  Light output over controls with CYP2C9: increased light output over controls
CYP2C9 [4]; [10]
  Time-dependence of light output on CYP2C9/substrate incubation: increased in a linear fashion for up to 60 minutes
CYP1A2
  Light output over controls with CYP1A2: increased light output over controls

## CC(=O)N1CCN(c2ccc(OCC3COC(Cn4ccnc4)(c4ccc(Cl)cc4Cl)O3)cc2)CC1 (stereo not drawn) [Ketoconazole, ketoconazole]
[1]; substrate H-Luc, sulfaphenazole and ketoconazole 100 micromolar
  Inhibition of light output with H-Luc: Partial inhibition
[1]; [9]
  Effect on activity against Luc BE: Inhibition

## O=C(O)[C@H]1CSC(c2nc3ccc(OCc4ccccc4)cc3s2)=N1 [Luc BE, Luciferin 6′-benzyl ether]
CYP3A4 [5]; CYP450 incubation 60 minutes at 37° C., then luciferase
  Light output over controls with CYP3A4: increased significantly
CYP3A4 [5]; [10]
  Time-dependence of light output on CYP3A4/substrate incubation: increased in a linear fashion for up to 60 minutes
CYP2C8
  Light output over controls with CYP2C8: increased significantly
[1]
  CYP450 activity detected with the substrate compared to Sf9 cell membranes: significant amounts of CYP450 activity was detected
CYP3A4 [6]
  Difference in light output to -CYP450 control, one-step with CYP3A4: modest
CYP2C9 [4]
  Light output over controls with CYP2C9: increased significantly

## O=C(O)[C@H]1CSC(c2nc3ccc(OCCCl)cc3s2)=N1 [Luc CEE, Luciferin 6′-(2-chloroethyl)ether]
CYP1A1 [7]
  Conversion to luciferin by CYP1A1: confirmed
CYP1A1 [8]
  Light output over controls with CYP1A1: increased significantly
CYP2C8
  Light output over controls with CYP2C8: increased significantly
CYP2C9 [4]
  Light output over controls with CYP2C9: increased significantly
CYP1A2
  Light output over controls with CYP1A2: increased significantly

## CCOc1ccc2nc(C3=N[C@@H](C(=O)O)CS3)sc2c1 [Luc EE, luciferin 6′ ethyl ether]
CYP1A1 [8]
  Light output over controls with CYP1A1: increased significantly
CYP2C8
  Light output over controls with CYP2C8: increased significantly
[1]
  CYP450 activity detected with the substrate compared to Sf9 cell membranes: significant amounts of CYP450 activity was detected
CYP2C9 [4]
  Light output over controls with CYP2C9: increased significantly
CYP1A2
  Light output over controls with CYP1A2: increased significantly

## Nc1ccc(S(=O)(=O)Nc2ccnn2-c2ccccc2)cc1 [Sulfaphenazole, sulfaphenazole]
[1]
  Inhibition of light output with H-Luc: near complete inhibition
